{
  "source": "patent US20060025477A1",
  "about": "“Analogs of isovaleramide, a pharmaceutical composition including the same, and a method of treating central nervous system conditions or diseases” (priority 2004, published 2006)",
  "key": {"[1]": {"test_system": "Frings audiogenic seizure-susceptible mouse", "experiment": "Frings audiogenic seizure assay (protection against sound-induced tonic hindlimb extension)", "assay_type": "in vivo", "settings": "Mus musculus, po, Table 5; read-out: ED50 Oral Administration", "procedure": "The anticonvulsant activity of compound S ((S)-(+)-2,2-dimethylcyclopropane-carboxamide) was tested using the Frings audiogenic seizure-susceptible mouse. […] Compound S, which is a solution at 300 mg/kg and a suspension at 600 mg/kg, was administered to the mice at the doses indicated in Tables 1-3. Compound S was obtained from Sigma-Aldrich Chemical Co. (Aldrich catalog number: 43,463-9).\nAt the time of testing, individual mice were placed into a round Plexiglas chamber and exposed to a sound stimulus of 110 decibels, 11 kHz, for 20 seconds. Mice not displaying tonic hindlimb extensions upon exposure to the sound stimulus were considered protected. In addition, the seizure score for each mouse was recorded as: (1) running for less than 10 seconds; (2) running for greater than 10 seconds; (3) clonic activity of limbs and/or vibrissae; (4) forelimb extension/hindlimb flexion; and (5) hindlimb extension. The average seizure score was calculated for each group of mice used in the dose-response study.\nThe anticonvulsant activity of compounds I, W, X, and AA was tested using the Frings audiogenic seizure-susceptible mouse model as described in Example 23. […] The therapeutic index relates to separation between therapeutic efficacy and CNS toxicity as measured by motor impairment in the rotarod performance test."}, "Frings mice": {"test_system": "Frings mice", "experiment": "Rotarod test of motor impairment (toxicity) in the Frings study", "assay_type": "in vivo", "settings": "Frings, mouse, in vivo, po", "procedure": "At each dose, the mice were also tested on a rotarod for testing of motor impairment (toxicity). Testing for motor impairment on the rotarod involved placing a mouse for a three-minute trial period on a one-inch diameter rod rotating at six revolutions per minute. If the mouse fell off of the rotating rod three times within the three-minute time period, the dose was considered a toxic response.\nThe therapeutic index relates to separation between therapeutic efficacy and CNS toxicity as measured by motor impairment in the rotarod performance test."}, "male Swiss-Webster mice [2]": {"test_system": "male Swiss-Webster mice", "experiment": "Maximal electroshock (MES)-induced tonic extension seizure test", "assay_type": "in vivo, mouse", "settings": "300 mg/kg p.o.", "procedure": "In the MES test, a substance is administered orally (p.o.) and is tested for efficacy against maximal electroshock (MES)-induced tonic extension seizures. Adult male Swiss-Webster mice (each 20-25 g of body weight) were used. The mice were housed in Association for the Assessment and Accreditation of Laboratory Animal Care-approved facilities under a constant 12-hour light/dark cycle with a constant temperature of 21° C.-23° C. and a relative humidity of 30% to 50%. All animals were permitted free access to standard laboratory chow (Prolab RMH 3000; PMI Nutrition International, LLC, Brentwood, Mo.) and water, except when removed from their home cages for testing. All mice were handled in a manner consistent with the recommendations in the National Research Council Publication Guide for the Care and Use of Laboratory Animals.\n(§1) Test compounds (Compound S, Compound W, the S-enantiomer of Compound AA, the R-enantiomer of Compound AA, Compound HH, Compound JJ, and Compound MM) were dissolved in saline containing 0.5% methylcellulose. To determine time to peak effect, 300 mg/kg of each of the test compounds was suspended in 0.5% methylcellulose in saline and administered orally to a group of 20 mice. For comparative purposes, isovaleramide was also tested. At various times (0.25, 0.5, 1, 2, and 4 hours) after p.o. administration, individual mice were placed on the rotarod and tested for their ability to maintain balance on a rotating (6 rpm) 2.5-cm diameter knurled rod for 60 seconds. Mice that fell three times in this 60-second trial were considered impaired.\nFollowing rotarod testing, the mice were tested in the maximal electroshock (MES)-induced tonic extension seizures test. For this test, a drop of electrolyte solution (0.5% butacaine sulfate in 0.9% saline) was placed on the eyes of each mouse prior to placement of corneal electrodes. The mice were restrained by gripping the loose skin on their dorsal surface and saline-coated corneal electrodes were held lightly against the two corneas. Each mouse received an electrical stimulation (50 mAmp, 50 Hz current, 0.2 sec) delivered through a silver-coated corneal electrode using an electroshock machine as originally described by Woodbury and Davenport (Arch Int. Pharmacodyn. Ther., 92:97-104, 1952). […] A tonic seizure was defined as a hindlimb extension in excess of 90 degrees from the plane of the body. Results were treated in a quantal manner. […] ED50's (the effective dose at which 50% of the mice were protected) were determined for Compounds W and HH by administering various doses (30, 100, 300 mg/kg) at the previously determined time to peak effect, as shown in Table 11."}, "male Swiss-Webster mice [3]": {"test_system": "male Swiss-Webster mice", "experiment": "Rotarod impairment test before MES testing", "assay_type": "in vivo, mouse", "settings": "300 mg/kg p.o.", "procedure": "as §1"}},
  "data": [
    {"smiles": "CC(C)C(C)C(N)=O", "note": "(racemic) [AA (cis and trans mixture)]", "values": [
      {"measurement": "ED50", "setting": "[1]", "value": 140, "unit": "mg/kg"}
    ]},
    {"smiles": "CC(C)[C@H](C)C(N)=O", "note": "[AA (R- enantiomer)]", "values": [
      {"measurement": "ED50", "setting": "[1]", "value": 84.2, "unit": "mg/kg"},
      {"measurement": "Therapeutic Index", "setting": "Frings mice", "value": ">4-fold"},
      {"measurement": "# P/# T (protected/tested)", "setting": "male Swiss-Webster mice [2]; 0.25 hours", "value": "0/4"},
      {"measurement": "# P/# T (protected/tested)", "setting": "male Swiss-Webster mice [2]; 0.5 hours", "value": "0/4"},
      {"measurement": "# P/# T (protected/tested)", "setting": "male Swiss-Webster mice [2]; 1 hour", "value": "0/4"},
      {"measurement": "# P/# T (protected/tested)", "setting": "male Swiss-Webster mice [2]; 2 hours", "value": "0/4"},
      {"measurement": "# P/# T (protected/tested)", "setting": "male Swiss-Webster mice [2]; 4 hours", "value": "0/4"},
      {"measurement": "# I/# T (impaired/tested)", "setting": "male Swiss-Webster mice [3]; 0.25 hours", "value": "3/4"},
      {"measurement": "# I/# T (impaired/tested)", "setting": "male Swiss-Webster mice [3]; 0.5 hours", "value": "3/4"},
      {"measurement": "# I/# T (impaired/tested)", "setting": "male Swiss-Webster mice [3]; 1 hour", "value": "0/4"},
      {"measurement": "# I/# T (impaired/tested)", "setting": "male Swiss-Webster mice [3]; 2 hours", "value": "3/4"}
    ]},
    {"smiles": "CC(C)[C@@H](C)C(N)=O", "note": "[AA (S- enantiomer)]", "values": [
      {"measurement": "ED50", "setting": "[1]", "value": 84.1, "unit": "mg/kg"},
      {"measurement": "Therapeutic Index", "setting": "Frings mice", "value": ">4-fold"},
      {"measurement": "# P/# T (protected/tested)", "setting": "male Swiss-Webster mice [2]; 0.25 hours", "value": "3/4"},
      {"measurement": "# P/# T (protected/tested)", "setting": "male Swiss-Webster mice [2]; 0.5 hours", "value": "0/4"},
      {"measurement": "# P/# T (protected/tested)", "setting": "male Swiss-Webster mice [2]; 1 hour", "value": "1/4"},
      {"measurement": "# P/# T (protected/tested)", "setting": "male Swiss-Webster mice [2]; 2 hours", "value": "1/4"},
      {"measurement": "# P/# T (protected/tested)", "setting": "male Swiss-Webster mice [2]; 4 hours", "value": "0/4"},
      {"measurement": "# I/# T (impaired/tested)", "setting": "male Swiss-Webster mice [3]; 0.25 hours", "value": "0/4"},
      {"measurement": "# I/# T (impaired/tested)", "setting": "male Swiss-Webster mice [3]; 0.5 hours", "value": "1/4"},
      {"measurement": "# I/# T (impaired/tested)", "setting": "male Swiss-Webster mice [3]; 1 hour", "value": "0/4"},
      {"measurement": "# I/# T (impaired/tested)", "setting": "male Swiss-Webster mice [3]; 2 hours", "value": "0/4"},
      {"measurement": "# I/# T (impaired/tested)", "setting": "male Swiss-Webster mice [3]; 4 hours", "value": "0/4"}
    ]},
    {"smiles": "CC(C)CC(=O)NCC(N)=O", "note": "[Compound I]", "values": [
      {"measurement": "ED50", "setting": "[1]", "value": "< 1000", "unit": "mg/kg"}
    ]},
    {"smiles": "CC(C)C(C)(C)C(N)=O", "note": "[Compound JJ]", "values": [
      {"measurement": "# P/# T (protected/tested)", "setting": "male Swiss-Webster mice [2]; 0.25 hours", "value": "1/4"},
      {"measurement": "# P/# T (protected/tested)", "setting": "male Swiss-Webster mice [2]; 0.5 hours", "value": "0/4"},
      {"measurement": "# P/# T (protected/tested)", "setting": "male Swiss-Webster mice [2]; 1 hour", "value": "0/4"},
      {"measurement": "# P/# T (protected/tested)", "setting": "male Swiss-Webster mice [2]; 2 hours", "value": "0/4"},
      {"measurement": "# P/# T (protected/tested)", "setting": "male Swiss-Webster mice [2]; 4 hours", "value": "0/4"},
      {"measurement": "# I/# T (impaired/tested)", "setting": "male Swiss-Webster mice [3]; 0.25 hours", "value": "1/4"},
      {"measurement": "# I/# T (impaired/tested)", "setting": "male Swiss-Webster mice [3]; 0.5 hours", "value": "2/4"},
      {"measurement": "# I/# T (impaired/tested)", "setting": "male Swiss-Webster mice [3]; 1 hour", "value": "1/4"},
      {"measurement": "# I/# T (impaired/tested)", "setting": "male Swiss-Webster mice [3]; 2 hours", "value": "0/4"},
      {"measurement": "# I/# T (impaired/tested)", "setting": "male Swiss-Webster mice [3]; 4 hours", "value": "0/4"}
    ]}
  ]
}
